The target of assay [1] is T1, Sentrin-specific protease 7 (Homo sapiens, UniProt Q9BQF6).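 Note: Luminescence-based dose-response confirmation of ultra-high-throughput screening hits, measuring inhibition of SENP7.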
T1 sequence (Q9BQF6 whole entry): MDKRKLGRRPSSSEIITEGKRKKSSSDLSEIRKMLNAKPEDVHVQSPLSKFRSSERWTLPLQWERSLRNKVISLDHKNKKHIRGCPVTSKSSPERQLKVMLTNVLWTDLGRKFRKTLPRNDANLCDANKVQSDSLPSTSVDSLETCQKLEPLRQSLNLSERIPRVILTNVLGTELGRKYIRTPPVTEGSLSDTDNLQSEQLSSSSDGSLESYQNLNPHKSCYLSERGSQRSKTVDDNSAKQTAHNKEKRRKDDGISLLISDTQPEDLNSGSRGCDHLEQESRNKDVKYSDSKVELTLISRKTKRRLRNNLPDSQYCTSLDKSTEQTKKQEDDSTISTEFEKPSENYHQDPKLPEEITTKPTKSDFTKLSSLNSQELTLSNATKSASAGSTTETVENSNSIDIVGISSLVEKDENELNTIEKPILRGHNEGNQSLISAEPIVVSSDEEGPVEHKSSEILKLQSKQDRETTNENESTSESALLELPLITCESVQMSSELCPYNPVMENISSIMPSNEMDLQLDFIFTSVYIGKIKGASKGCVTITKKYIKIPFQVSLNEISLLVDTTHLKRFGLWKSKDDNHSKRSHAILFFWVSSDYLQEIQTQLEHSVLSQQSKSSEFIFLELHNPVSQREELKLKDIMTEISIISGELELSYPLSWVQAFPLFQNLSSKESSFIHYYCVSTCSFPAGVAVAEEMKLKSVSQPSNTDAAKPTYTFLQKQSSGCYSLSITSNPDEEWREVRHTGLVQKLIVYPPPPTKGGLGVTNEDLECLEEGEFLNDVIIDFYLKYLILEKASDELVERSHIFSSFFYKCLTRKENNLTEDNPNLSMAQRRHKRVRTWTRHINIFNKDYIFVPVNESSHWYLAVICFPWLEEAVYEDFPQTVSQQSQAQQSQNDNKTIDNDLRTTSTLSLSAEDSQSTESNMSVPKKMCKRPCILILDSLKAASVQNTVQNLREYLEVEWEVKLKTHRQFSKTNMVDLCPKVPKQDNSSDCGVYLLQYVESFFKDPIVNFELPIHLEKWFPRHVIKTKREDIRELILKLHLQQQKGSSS
The format is functional.

For assay [2], the target named is T2, Histone-lysine N-methyltransferase NSD2 (Homo sapiens, UniProt O96028).
T2 sequence (O96028 whole entry): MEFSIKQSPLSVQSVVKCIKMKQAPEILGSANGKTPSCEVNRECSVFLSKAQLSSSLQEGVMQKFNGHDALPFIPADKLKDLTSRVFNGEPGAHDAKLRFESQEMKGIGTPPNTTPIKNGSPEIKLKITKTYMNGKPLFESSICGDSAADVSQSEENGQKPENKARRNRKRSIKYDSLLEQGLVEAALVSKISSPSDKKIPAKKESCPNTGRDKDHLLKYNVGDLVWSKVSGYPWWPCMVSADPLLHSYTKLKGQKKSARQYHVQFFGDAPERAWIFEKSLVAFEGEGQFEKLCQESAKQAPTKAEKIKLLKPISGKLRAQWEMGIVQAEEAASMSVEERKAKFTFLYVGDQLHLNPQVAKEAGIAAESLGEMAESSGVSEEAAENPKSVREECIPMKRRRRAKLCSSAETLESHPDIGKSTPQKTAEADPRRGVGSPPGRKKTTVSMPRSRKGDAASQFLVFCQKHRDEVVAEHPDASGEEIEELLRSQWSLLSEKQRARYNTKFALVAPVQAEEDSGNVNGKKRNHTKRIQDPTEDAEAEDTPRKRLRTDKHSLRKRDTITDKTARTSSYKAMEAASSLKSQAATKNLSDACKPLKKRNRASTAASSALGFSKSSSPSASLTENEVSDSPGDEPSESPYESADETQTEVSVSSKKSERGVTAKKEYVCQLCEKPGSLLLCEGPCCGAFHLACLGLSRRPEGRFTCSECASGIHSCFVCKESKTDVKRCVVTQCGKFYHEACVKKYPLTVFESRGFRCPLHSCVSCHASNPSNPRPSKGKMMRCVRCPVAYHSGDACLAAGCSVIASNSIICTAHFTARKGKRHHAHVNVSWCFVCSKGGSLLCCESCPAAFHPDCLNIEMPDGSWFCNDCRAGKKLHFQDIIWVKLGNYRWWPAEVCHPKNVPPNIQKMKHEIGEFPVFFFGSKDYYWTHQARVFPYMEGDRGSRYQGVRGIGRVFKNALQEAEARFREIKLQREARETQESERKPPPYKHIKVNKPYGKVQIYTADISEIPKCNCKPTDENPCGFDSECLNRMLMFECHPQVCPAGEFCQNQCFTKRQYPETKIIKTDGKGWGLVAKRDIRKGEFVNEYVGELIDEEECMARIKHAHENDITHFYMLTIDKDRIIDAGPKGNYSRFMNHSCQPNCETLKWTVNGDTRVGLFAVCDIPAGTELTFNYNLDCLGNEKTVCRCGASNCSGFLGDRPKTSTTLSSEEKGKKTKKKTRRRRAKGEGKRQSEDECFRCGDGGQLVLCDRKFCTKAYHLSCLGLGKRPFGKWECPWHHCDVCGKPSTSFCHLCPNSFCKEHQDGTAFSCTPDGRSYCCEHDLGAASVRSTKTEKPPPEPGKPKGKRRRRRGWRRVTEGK
The format is biochemical.

A further assay has as its target T3, Streptokinase A (Streptococcus pyogenes serotype M1, UniProt P10520).
T3 sequence (P10520 whole entry): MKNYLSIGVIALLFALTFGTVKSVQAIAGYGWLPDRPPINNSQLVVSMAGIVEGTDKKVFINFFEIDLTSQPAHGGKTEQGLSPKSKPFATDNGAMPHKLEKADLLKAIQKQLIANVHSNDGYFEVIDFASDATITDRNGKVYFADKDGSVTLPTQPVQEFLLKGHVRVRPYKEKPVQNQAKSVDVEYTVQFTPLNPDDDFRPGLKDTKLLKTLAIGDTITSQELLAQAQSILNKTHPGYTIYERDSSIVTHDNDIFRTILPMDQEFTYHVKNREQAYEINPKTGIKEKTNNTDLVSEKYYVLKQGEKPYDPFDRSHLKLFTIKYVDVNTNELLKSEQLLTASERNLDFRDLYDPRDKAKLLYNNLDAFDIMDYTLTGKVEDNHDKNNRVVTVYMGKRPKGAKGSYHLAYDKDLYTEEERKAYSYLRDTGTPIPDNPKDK
Put plainly: viability-normalized secreted streptokinase activity reduction – plasminogen activation absorbance, OD405, dose response (AID 1914).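 Note: secreted streptokinase activity via plasminogen activation per viability signal from cell pellet.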 Type of assay: functional, Streptococcus pyogenes M1 GAS.

Assay [3] concerns the target Glucose-6-phosphate 1-dehydrogenase (Homo sapiens, UniProt P11413). Put plainly: inhibition of Homo sapiens G6PD, dose series – biochemical, fluorescence, selectivity assay for P. falciparum G6PD inhibitor project, dose response (AID 504792). Type of assay: functional.
The next assay concerns CHO. Put plainly: CHO cell viability loss, potency – luminescence, cytotoxicity control for TLR9-MyD88 binding inhibitor project, dose response (AID 588339).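 Note: CHO cells stably coexpressing TLR9 and MyD88 fusions from primary screen; compound exposure lasted 48 hours before viability readout.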 Type of assay: functional, cell-based, hamster. The note with it: Cricetulus griseus.
The nature of assay [4]: NIH3T3 cell viability loss – ATP luminescence, mouse fibroblasts, counter-screen, dose response (AID 2010).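 Note: cells exposed to compound for about 90 hours before reading.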 The format is functional, cell-based. A general note: The purpose of a counterscreen is to sort out artefacts and off-target activity.

These results are taken from ChEMBL document CHEMBL1201862, “PubChem BioAssay data set” (2004).

For orientation: IC50 means the concentration needed to halve the response being measured. As a reminder, the AC50 is the midpoint of the concentration-response curve, whichever way the signal moves. In general, EC50 refers to the concentration that produces a half-maximal response.

The source made the active and inactive calls.

Sequence of Glucose-6-phosphate 1-dehydrogenase (P11413 whole entry, the tested form may be a part): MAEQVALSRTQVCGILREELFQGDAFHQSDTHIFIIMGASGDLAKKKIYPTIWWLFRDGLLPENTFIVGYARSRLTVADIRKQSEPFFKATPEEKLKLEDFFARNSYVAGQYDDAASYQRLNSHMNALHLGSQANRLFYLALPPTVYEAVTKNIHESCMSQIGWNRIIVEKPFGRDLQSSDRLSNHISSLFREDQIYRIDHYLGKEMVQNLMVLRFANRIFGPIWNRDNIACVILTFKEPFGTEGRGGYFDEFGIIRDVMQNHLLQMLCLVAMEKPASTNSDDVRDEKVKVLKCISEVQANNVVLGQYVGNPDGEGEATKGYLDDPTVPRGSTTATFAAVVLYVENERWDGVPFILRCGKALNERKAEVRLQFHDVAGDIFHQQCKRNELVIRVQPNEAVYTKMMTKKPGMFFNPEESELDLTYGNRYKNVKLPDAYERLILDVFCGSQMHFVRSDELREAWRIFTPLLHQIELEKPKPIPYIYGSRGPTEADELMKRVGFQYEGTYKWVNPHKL

In the case of `O=C(c1ccccc1)c1coc2c1C(=O)c1ccccc1C2=O`, the IC50 in assay [1] was 12.7 µM (active).
Consider `CCOC(=O)c1c(C)oc2c1c(/C=N/CCC(=O)O)c(O)c1ccccc12`, for which the AC50 in assay [2] was 1.87 µM (active).
On to `O=[N+]([O-])c1c(NCCO)cc(Sc2nc3ccccc3s2)c2nonc12`, for which the 50% effective concentration (EC50) at Streptokinase A is recorded as > 150 µM (not active). The IC50 is > 80 µM (inactive) in assay [3] and 1.94 µM (active) in the assay with CHO.
Take `CC(=O)NC(c1ccc2ccccc2c1)c1ccc2cccnc2c1O` (configuration not stated): the EC50 in assay [4] is 0.589 µM (active).
As for `COc1ccc2c(c1)CCC(/C=N/c1ccc3c(c1)OCO3)=C2O`, the IC50 in assay [3] is > 80 µM (inactive); in assay [1], 13.1 µM (active).
Turning to `CCc1ccc(Nc2n[n+](-c3ccccc3)c(-c3c(Cl)cccc3Cl)s2)cc1`, the EC50 at Streptokinase A was 7.4 µM (active); in assay [4], 5.53 µM (active). For the same molecule, the IC50 in the assay with CHO was 6.79 µM (active).
Take `CCOC(=O)c1c(C)[nH]c2c1-c1ccccc1C(=O)C2=O`: the half-maximal activity concentration (AC50) in assay [2] was 1.33 µM (active).
